Experiments:
[1] = test system: FXR target genes SHP, OSTα, BSEP in HepG2 cells; test: RT-PCR of FXR target genes in HepG2 cells; format: cell-based, human; details: 1 μM, 18 h, versus 6-ECDCA 1 μM
Method: HepG2 cells were plated at 1 × 10^6 cells/well in a six well plate. After an overnight incubation, cells were starved and then stimulated for 18 h with compound 2 at 1 μM. Total RNA was isolated from HepG2 cells or liver tissues using the TRIzol reagent according to the manufacturer’s specifications (Invitrogen). One microgram of purified RNA was treated with DNase-I and reverse transcribed with Superscript II (Invitrogen). For Real Time PCR, 10 ng template was dissolved in 25 μL containing 200 nmol/L of each primer and 12.5 μL of 2× SYBR FAST Universal ready mix (Invitrogen). All reactions were performed in triplicate, and the thermal cycling conditions were as follows: 2 min at 95°C, followed by 40 cycles of 95°C for 20 s and 60°C for 30 s in StepOnePlus (Applied Biosystems). The relative mRNA expression was calculated accordingly to the Ct method. Primers were designed using the software PRIMER3^1 using published data obtained from the NCBI database. Forward and reverse primer sequences were the following: human GAPDH, […] and […]; human BSEP, […] and […]; human OSTα, […] and […]; human SHP, […] and […]; mouse NTCP, […] and […]; mouse CYP7A1, […] and […]; mouse FGF21, […] and […]; mouse GAPDH, […] and […]; mouse BSEP, […] and […]; mouse OSTα, […] and […]; mouse SHP, […] and […].

human GPBAR1 = biological target: T1, human GPBAR1 (Homo sapiens, UniProt Q8TDU6); test: GPBAR1 transactivation on HepG2 cells (CRE luciferase reporter); format: cell-based; details: 50 and 100 μM
T1 construct: expressed in transfected cells; host or cells: HepG2
T1 sequence (Q8TDU6 1-330): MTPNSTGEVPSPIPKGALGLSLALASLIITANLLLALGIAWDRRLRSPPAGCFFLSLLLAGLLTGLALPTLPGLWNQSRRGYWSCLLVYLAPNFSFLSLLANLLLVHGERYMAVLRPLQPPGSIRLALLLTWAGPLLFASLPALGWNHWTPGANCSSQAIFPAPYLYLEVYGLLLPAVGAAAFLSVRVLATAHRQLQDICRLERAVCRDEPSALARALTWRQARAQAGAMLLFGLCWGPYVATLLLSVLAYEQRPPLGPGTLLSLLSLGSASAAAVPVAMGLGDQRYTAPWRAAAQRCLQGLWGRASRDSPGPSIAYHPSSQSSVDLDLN
Method: For FXR mediated transactivation, HepG2 cells were plated at 5 × 10^4 cells/well in a 24 well plate. Cells were transfected with 200 ng of the reporter vector p(hsp27)-TK-LUC containing a FXR response element (IR1) cloned from the promoter of heat shock protein 27 (hsp27), 100 ng of pSG5-FXR, 100 ng of pSG5-RXR, and 100 ng of pGL4.70 (Promega), a vector encoding the human Renilla gene. For GPBAR1 mediated transactivation, HepG2 cells were plated at 5 × 10^4 cells/well in a 24 well-plate and transfected with 200 ng of pGL4.29 (Promega), a reporter vector containing a cAMP response element (CRE) that drives the transcription of the luciferase reporter gene luc2P, with 100 ng of pCMVSPORT6-human GPBAR1, and with 100 ng of pGL4.70 Renilla. […] TLCA (10 μM) was used as a positive control for GPBAR1 activity.

GST-fusion FXR-LBD = biological target: T2, GST-fusion FXR-LBD (Homo sapiens, UniProt Q96RI1); test: Alpha Screen coactivator (SRC-1 peptide) recruitment assay; format: biochemical
T2 construct: 10 nM of purified GST-tagged FXR-LBD protein
T2 sequence (Q96RI1 262-486 limits assumed): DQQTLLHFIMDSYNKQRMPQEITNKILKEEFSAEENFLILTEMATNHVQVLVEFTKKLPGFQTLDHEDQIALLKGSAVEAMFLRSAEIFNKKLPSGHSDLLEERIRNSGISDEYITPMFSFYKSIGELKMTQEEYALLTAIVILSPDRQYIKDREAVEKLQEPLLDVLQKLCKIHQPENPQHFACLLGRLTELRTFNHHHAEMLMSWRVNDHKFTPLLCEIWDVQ
Method: Activation of FXR was determined by Alpha Screen Technology in a Coactivator Recruitment Assay. Anti-GST-coated acceptor beads were used to capture the GST-fusion FXR-LBD, whereas the biotinylated-SRC-1 peptide was captured by the streptavidin donor beads. Upon illumination at 680 nm, chemical energy is transferred from donor to acceptor beads across the complex streptavidin-donor/[…]-LBD/anti-GST-acceptor and a signal is produced. The assay was performed in white, low-volume, 384-well Optiplates (PerkinElmer) using a final volume of 25 μL containing final concentrations of 10 nM of purified GST-tagged FXR-LBD protein, 30 nM biotinylated SRC-1 peptide, 20 μg/mL anti-GST acceptor beads, and 10 μg/mL of streptavidin donor bead (PerkinElmer). The assay buffer contained 50 mM Tris (pH 7.4), 50 mM KCl and 1 mM DTT. The stimulation times with 1 μL of tested compound (dissolved in 50% DMSO/H2O) were fixed to 30 min at room temperature. The concentration of DMSO in each well was maintained at a final concentration of 2%. After the addition of the detection mix (acceptor and donor beads), the plates were incubated in the dark for 3 h at room temperature and then were read in an Envision microplate analyzer (PerkinElmer).

[2] = test system: bile acid pool in plasma and gallbladder; test: Bile acid pool in C57BL6 mice (LC-MS/MS)
Method: At the day of sacrifice livers, gallbladders, blood and feces were collected from mice for further analysis.
The stock solutions of the individual tauro-conjugated and un-conjugated BAs were prepared separately in methanol at a concentration of 1 mg/mL. All stock solutions were stored at –20°C. Calibration standards were prepared by combining appropriate volumes of each BA stock solution and methanol. […] Mice serum sample aliquots of 20 μL were mixed with 80 μL of CH3OH, shaken continuously, vortexed and, after centrifugation at 16000 g for 10 min, the clear supernatant was transferred to a new vial, snap frozen and lyophilized. The sample was then re-dissolved in 40% water/ 60% MeOH with 0.1% formic acid and ammonium acetate 5 mM. […] For gallbladder, 10 mg of lyophilized gallbladder were manually pestle using a mortar and dissolved in 1 mL CH3OH. After centrifugation at 16000 g for 10 min, 500 μL of supernatants were lyophilized and reconstituted in 100 μL of 40% water/60% MeOH with 0.1% formic acid and ammonium acetate 5 mM.
For LC-MS/MS analysis, chromatographic separation was carried out on the HPLC-MS system Q-TRAP 6500 LC-MS/MS System from AB Sciex equipped with Shimadzu LC-20A LC and AutoSampler system. The mixture was separated on a Synergi Fusion RP 4 m from Phenomenex (150 mm × 2.00 mm).
Tauro-conjugated and non-conjugated BAs were separated at a flow rate of 200 μL/min using a methanol–aqueous ammonium acetate (NH4OAc) gradient. Mobile phase A was water containing 5 mM ammonium acetate and 0.1% formic acid, mobile phase B was methanol, containing ammonium acetate at 5 mM and 0.1% formic acid. […] ESI was performed in negative ion mode and the ion source temperature was set at 280°C. The tune page parameters were automatically optimized injecting taurocholic acid at 1 μM as standard.

CC[C@H]1[C@@H](O)[C@@H]2[C@H](CC[C@]3(C)[C@@H]([C@H](C)CCC(=O)O)CC[C@@H]23)[C@@]2(C)CC[C@H](N=[N+]=[N-])C[C@@H]12 [compound 2, 3β-azido-6α-ethyl-7α-hydroxy-5β-cholan-24-oic acid]
modulation of BSEP mRNA expression [1]: more potent than 6-ECDCA
modulation of OSTα mRNA expression [1]: more potent than 6-ECDCA
modulation of SHP mRNA expression [1]: equipotent with 6-ECDCA
GPBAR1 transactivation (human GPBAR1): inactivity
EC50 (GST-fusion FXR-LBD; recruitment of SRC-1 co-activator peptide, Alfa Screen, Table 1): 610 ± 90 nM
Efficacy (GST-fusion FXR-LBD; recruitment of SRC-1 co-activator peptide, Alfa Screen, Table 1, 6-ECDCA = 100): 90
efficacy respect to 6-ECDCA (GST-fusion FXR-LBD; recruitment of SRC-1 peptide): 90%
blood level of tHCA ([2]; 50 mg/kg): significantly reduced
level of tauro-deoxycholic acid (tDCA) ([2]; 50 mg/kg oral): reduction
plasmatic and gallbladder levels of tauro-cholic acid (tCA) ([2]; 50 mg/kg oral): significantly reduced
plasmatic and gallbladder levels of tauro-muricholic acid (tMu) ([2]; 50 mg/kg oral): significantly reduced

Source: PMC5371667, “Targeting Bile Acid Receptors: Discovery of a Potent and Selective Farnesoid X Receptor Agonist as a New Lead in the Pharmacological Approach to Liver Diseases” (Frontiers in Pharmacology, 2017)
